Columns and labels:
GRP78 = GRP78 (Homo sapiens, UniProt P11021); test: Fluorescence polarization FITC-NRLLLTG peptide; settings: peptide binding assay, 8-point dose responses
HCT116 cells [1] = test: Unfolded protein response markers by immunoblot; assay type: cell-based; settings: 16 hours, three concentrations
HCT116 cells [2] = test: Annexin V / propidium iodide flow cytometry; assay type: cell-based

GRP78, sequence (P11021 26-636): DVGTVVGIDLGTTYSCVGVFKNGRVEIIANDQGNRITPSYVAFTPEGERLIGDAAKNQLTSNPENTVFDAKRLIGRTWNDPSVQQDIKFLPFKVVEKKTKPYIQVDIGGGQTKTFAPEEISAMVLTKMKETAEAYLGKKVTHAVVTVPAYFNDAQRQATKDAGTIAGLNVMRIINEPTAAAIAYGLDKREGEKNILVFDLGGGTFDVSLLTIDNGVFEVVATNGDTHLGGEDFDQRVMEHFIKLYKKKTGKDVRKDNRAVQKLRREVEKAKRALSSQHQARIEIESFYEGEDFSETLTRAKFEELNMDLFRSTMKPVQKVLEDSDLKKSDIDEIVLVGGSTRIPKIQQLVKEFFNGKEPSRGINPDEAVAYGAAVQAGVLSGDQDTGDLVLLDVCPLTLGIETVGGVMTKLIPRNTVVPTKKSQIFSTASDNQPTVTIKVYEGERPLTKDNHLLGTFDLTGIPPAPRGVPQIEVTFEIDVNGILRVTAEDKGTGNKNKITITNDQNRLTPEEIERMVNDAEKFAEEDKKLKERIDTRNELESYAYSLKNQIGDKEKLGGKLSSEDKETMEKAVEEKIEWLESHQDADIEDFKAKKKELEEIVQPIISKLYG

Row | Compound | GRP78 inhibition, SAR result in words (GRP78) | further results
1 | Oc1c(Cl)cc(Cl)c(Cl)c1Sc1c(O)c(Cl)cc(Cl)c1Cl [compound 2] | tolerated | –
2 | Oc1ccc(Cl)cc1Cc1cc(Cl)ccc1O [compound 5] | inactive | –
3 | Oc1cc(Cl)ccc1Oc1ccc(Cl)cc1Cl [compound 6] | not tolerated | –
4 | Oc1ccccc1Cc1ccccc1O [compound 7] | inactive | –
5 | CCc1cc(Cc2cc(CC)cc(C(C)(C)C)c2O)c(O)c(C(C)(C)C)c1 [compound 8] | not tolerated | –
6 | O=C(Nc1cc(Cl)cc(Cl)c1O)c1c(O)c(Cl)cc(Cl)c1Cl [compound 9] | not tolerated | –
7 | Cc1cc(Cc2cc(C)cc(C(C)(C)C)c2O)c(O)c(C(C)(C)C)c1 [compound 10] | not tolerated | –
8 | Oc1c(Cl)cc(Cl)c(Cl)c1Cc1c(O)c(Cl)cc(Cl)c1Cl [hexachlorophene] | – | induction of UPR markers (XBP1s, ATF4, CHOP) (HCT116 cells [1]): dose dependent induction; percentage of apoptotic cells (annexin V staining only) versus Taxol control (HCT116 cells [2]; 10 μM, 24 hours): same percentage of apoptotic cells; percentage of apoptotic cells versus Taxol control (HCT116 cells [2]; 25 μM, 24 hours): larger percentage of apoptotic cells than the Taxol control; mechanism of cell death (HCT116 cells [2]; 5, 10, or 25 μM, dose and time course): apoptotic cell death in a dose (Figure 6A) and time (Figure 6B) dependent manner; time of peak early apoptosis (annexin V positive and PI negative) (HCT116 cells [2]; time course): about 24 hours; time of peak late stage apoptosis (Annexin V and PI positive) (HCT116 cells [2]; time course): 36 h

From publication PMC6608569 (Bioorganic & medicinal chemistry letters, 2019)
